Consider one molecule from patent US4131620A, “Sulfamic acid halides and their manufacture” (BASF Aktiengesellschaft, priority 1976, dated 1978).

One assay concerns Amaranthus retroflexus. The assay is described as follows: herbicidal action, post-emergence method, in a greenhouse. Type of assay: in vivo, Amaranthus retroflexus (pigweed). As to conditions: Amar. retr., 0 = no damage, 100 = complete destruction. Here is the method:
(§1) A range of crop plants and of unwanted plants are treated in a greenhouse. The test plants, segregated according to species, are grown in plastic pots. […] Water (300 liters per hectare) serves as the vehicle and dispersing medium. […] The results are rated on a scale of from 0 to 100, with O = no damage and 100 = complete destruction.

The test system of another assay is Sida spinosa. Described as above. Type of assay: in vivo, Sida spinosa (teaweed (pricly sida)). As to conditions: Sida spin., 0 = no damage, 100 = complete destruction. Here is the method:
as §1

A further assay deals with crop plants. As to the kind of experiment: herbicidal action, post-emergence treatment in a greenhouse, crop plants. It is filed as in vivo. Conditions: after one week. Here is the method: (§2) A range of crop plants and of unwanted plants are treated in a greenhouse. The test plants, segregated according to species, are grown in plastic pots. When they have grown to from 2 to 15 cm, depending on the age and the habit of the species, emulsions of the end product I prepared in Example 10 are applied to the leaves by means of jets which produce a fine spray (post-emergence treatment). Water (300 liters per hectare) serves as the vehicle and dispersing medium. […] The results are rated on a scale of from 0 to 100, with O = no damage and 100 = complete destruction.

A further assay deals with Ludwigia spp. As to the kind of experiment: herbicidal action, post-emergence method, in a greenhouse. Conditions: Ludw. spp., 0 = no damage, 100 = complete destruction. It is filed as in vivo. Here is the method: as §1
A further assay deals with Sesbania exaltata. The description is as above. It is filed as in vivo, Sesbania exaltata (hemp sesbania (coffeeweed)). Conditions: Sesb. exalt., 0 = no damage, 100 = complete destruction. Here is the method: as §2
The test system of the next assay is Cyperus esculentus. The description is as above. As to conditions: Cyp. esc., 0 = no damage, 100 = complete destruction. Type of assay: in vivo, Cyperus esculentus (yellow nutsedge). Here is the method: as §1
The subject of the next assay is Sinapis alba. The description is as above. Type of assay: in vivo, Sinapis alba (white mustard). Conditions: Sin. alba, 3 kg/ha of active ingredient (footnote +), 0 = no damage, 100 = complete destruction. Here is the method:
as §2

The subject of the next assay is Oryza sativa. The description is as above. Type of assay: in vivo, Oryza sativa (rice). Conditions: Oryz. sat., 0 = no damage, 100 = complete destruction. Here is the method:
as §1

The subject of another assay is Ammannia coccinea. The assay is described as above. As to conditions: Amm. cocc., 0 = no damage, 100 = complete destruction. Type of assay: in vivo, Ammannia coccinea (redstem). Here is the method: as §2
The next assay relates to unwanted plants. As to the kind of experiment: herbicidal action, post-emergence treatment in a greenhouse, unwanted plants. Type of assay: in vivo. Here is the method: as §2
The next assay concerns Ipomoea spp. The assay is described as follows: herbicidal action, post-emergence method, in a greenhouse. It is filed as in vivo, Ipomoea spp. (morning glory). Conditions: Ipom. spp., 0 = no damage, 100 = complete destruction. Here is the method:
as §1

In a further assay the test system is Glycine max. Described as above. Type of assay: in vivo, Glycine max (soy beans). Conditions: Glyc. max, 0 = no damage, 100 = complete destruction. Here is the method:
as §2

A further assay deals with Avena sativa. Described as above. Conditions: Avena sat., 3 kg/ha of active ingredient (footnote +), 0 = no damage, 100 = complete destruction. Type of assay: in vivo, Avena sativa (oats). Here is the method:
as §2

For the molecule `CCN(COC)S(=O)(=O)N1c2ccccc2C(=O)N(C(C)C)S1(=O)=O` [Example 10, 3-isopropyl-1-N'-methoxymethyl-N'-ethylsulfamoyl-2,1,3-benzothiadiazin-4-one-2,2-dioxide], the “% damage” value came to 60% in the assay with Amaranthus retroflexus (2.0 kg/ha of active ingredient); 60% in the assay with Amaranthus retroflexus (4.0 kg/ha of active ingredient); 95% in the assay on Sida spinosa (2.0 kg/ha of active ingredient); 95% in the assay with Sida spinosa (4.0 kg/ha of active ingredient); 50% in the assay with Ludwigia spp. (2.0 kg/ha of active ingredient); 75% with Ludwigia spp. (4.0 kg/ha of active ingredient). Also, the “% damage” value was determined as 50% in the assay on Sesbania exaltata (2.0 kg/ha of active ingredient); 60% in the assay with Sesbania exaltata (4.0 kg/ha of active ingredient); 60% with Cyperus esculentus (2.0 kg/ha of active ingredient); 70% in the assay with Cyperus esculentus (4.0 kg/ha of active ingredient); 100% in the assay with Sinapis alba; 0% in the assay on Oryza sativa (2.0 kg/ha of active ingredient). The “% damage” value came out at 0% in the assay with Oryza sativa (4.0 kg/ha of active ingredient); 50% with Ammannia coccinea (2.0 kg/ha of active ingredient); 60% with Ammannia coccinea (4.0 kg/ha of active ingredient); 50% with Ipomoea spp. (2.0 kg/ha of active ingredient); 90% in the assay with Ipomoea spp. (4.0 kg/ha of active ingredient); 5% with Glycine max (2.0 kg/ha of active ingredient). In addition, the “% damage” value with Glycine max (4.0 kg/ha of active ingredient) is reported as 15%; in the assay on Avena sativa it was 0%. In addition, in the assay on crop plants, the “damage to crop plants (in words)” value was “very little or no attach”. In addition, in the assay on unwanted plants, the “onset of action (in words)” value was “The action sets in rapidly”. In addition, the “damage to unwanted plants (in words)” value in the assay with unwanted plants (after one week) is given as “dying”.
